Source: patent US8317991B2, “Process for electrokinetic migration through liquid membranes” (priority 2005, dated 2012)
Structures can show the parent of a compound that is named as a salt.

What was measured:
[1] = Clarkes Analysis of Drugs and Poisons; cited from earlier work
[2] = 1-octanol/water partition coefficient; Clarkes Analysis of Drugs and Poisons; cited from earlier work
[3] = Electrokinetic cross-membrane isolation (ECMI) of basic drugs; recovery in acceptor solution by capillary electrophoresis; type: physicochemical; design: key to Recovery: *: Recovery was observed, but results were unreliable due to large standard deviations; details: for Recovery: liquid membrane 2-octanone, 300 V, 5 min, 5.2 mm vial; for Enrichment: optimal ECMI, 300 μl sample to 30 μl acceptor
Protocol: The DC power supply used was a model XFR 300-9 (Xantrex, Burnaby, BC, Canada) with a programmable voltage in the range 0 to 300 V, providing currents in the range 0 to 9 A. Simple steel wires with a diameter of 0.2 mm were used as electrodes in the sample and acceptor solutions, and were connected to the power supply. As sample compartment, 800 μL polypropylene vials with cap were used with a height of 35 mm and with an internal diameter of 5.2 mm (unknown supplier). […] The porous hollow fiber used for immobilization of the artificial liquid membrane and for housing the acceptor solution was a PP Q3/2 polypropylene hollow fiber (Membrana, Wuppertal, Germany) with an internal diameter of 1.2 mm, with a 200 μm wall thickness, and with 0.2 μm pores. The ECMI was agitated at 1200 rpm during the experiments with a Vibramax 100 agitator (Heidolph, Kelheim, Germany).
ECMI was performed according to the following procedure; 300 μl acidified sample solution was filled into a polypropylene vial, and the positive electrode was placed in the sample. A 3.1 cm piece of polypropylene hollow fiber was closed in the lower end by mechanical pressure, whereas the upper end was connected to a 2.2 cm length pipette tip of polypropylene as a guiding tube. The hollow fiber and the guiding tube were then inserted through the cap of the sample vial. The hollow fiber was dipped for 5 s in the organic solvent serving as the artificial liquid membrane (typically 2-nitrophenyl octyl ether, nitrobenzene, 1-isopropyl nitrobenzene, octanol or heptanol), and excess of solvent was removed with a medical wipe. With a micro syringe, 30 μL of acceptor solution was filled into the hollow fiber, and the negative electrode was placed in the acceptor solution. Finally, the hollow fiber with acceptor solution was placed into the sample, and voltage (typically 300 V) was applied for 5 minutes. After electrokinetic cross-membrane isolation, the acceptor solution was collected with a micro syringe, and was transferred to a micro insert for the capillary electrophoresis instrument.
Capillary electrophoresis was performed with a MDQ instrument (Beckman, Fullerton, Calif., USA) equipped with a UV-detector. Separations were accomplished in a 75-μm-i.d. fused-silica capillary with an effective length of 20 cm (Beckman). The running buffer was 15 mM phosphate adjusted to pH 2.7 with ortho-phosphoric acid. The instrument was operated at 20 kV, which generated a current level of approximately 50 μA. Samples were introduced by hydrodynamic injection at 0.5 psi for 5 s. Detection was accomplished at 200 nm utilizing a 100×800 μm slit.
Recovery (R) during the cross-membrane isolation was calculated according to the following equation for each analyte: R=na,final/ns,initial×100%=(Va/Vs)(Ca,final/Cs,initial)·100% (1) where ns,initial and na,final are the number of moles of analyte originally present in the sample and the number of moles of analyte finally collected in the acceptor solution, respectively. Va is the volume of acceptor phase, Vs is the volume of sample, Ca,final is the final concentration of analyte in the acceptor phase, and Cs,initial is the initial analyte concentration within the sample.
Enrichment (E) during the cross-membrane isolation was calculated according to the following equation for each analyte: E=Ca,final/Cs,initial (2) Results and Discussion Initial Experiments.

Compound | pKa [1] | log P [2] | Recovery [3] | Enrichment [3]
CN1CCC[C@@H]1CCO[C@](C)(c1ccccc1)c1ccc(Cl)cc1 [Clemastine, clemastine] | 10.2 | 5.7 | – | –
CN(C)CCCN1c2ccccc2CCc2ccc(Cl)cc21 [Clomipramine, clomipramine] | – | 5.2 | – | –
OCCN1CCN(CCCN2c3ccccc3Sc3ccc(C(F)(F)F)cc32)CC1 [Fluphenazine, fluphenazine] | – | 3.5 | – | –
O=C(CCCN1CCC(O)(c2ccc(Cl)cc2)CC1)c1ccc(F)cc1 [Haloperidol, haloperidol] | – | 3.2 | * | 7.2
OCCOCCN1CCN(C(c2ccccc2)c2ccc(Cl)cc2)CC1 (centres unmarked) [Hydroxyzine, hydroxyzine] | – | 2.4 | – | –
CN(C)C(=O)C(CCN1CCC(O)(c2ccc(Cl)cc2)CC1)(c1ccccc1)c1ccccc1 [Loperamide, loperamide hydrochloride] | 8.1 | 5.2 | * | 7.6
COc1ccc(CN(CCN(C)C)c2ccccn2)cc1 [Mepyramine, mepyramine] | – | 2.8 | – | –
CN[C@@H](C)Cc1ccccc1 [Metamfetamine, methamphetamine sulphate] | 10.1 | – | – | –
C[C@H](N)[C@H](O)c1cccc(O)c1 [Metaraminol, metaraminol hydrochloride] | 8.6 | −0.3 | – | –
CCC(=O)C(CC(C)N(C)C)(c1ccccc1)c1ccccc1 (centres unmarked) [Methadone, methadone hydrochloride] | – | – | * | 7.9
CNCCC=C1c2ccccc2CCc2ccccc21 [Nortriptyline, nortriptyline hydrochloride] | – | 1.7 | * | 7.0
CCOC(=O)C1(c2ccccc2)CCN(C)CC1 [Pethidine, Pethidine hydrochloride] | – | – | * | 7.0
c1ccc(C2(N3CCCCC3)CCCCC2)cc1 [Phencyclidine, phencyclidine] | – | 4.7 | – | –
CC(=O)Nc1ccc(OCC(O)CNC(C)C)cc1 (centres unmarked) [Practolol, practolol] | – | −1.3 | – | –
CC(CN1c2ccccc2Sc2ccccc21)N(C)C (centres unmarked) [Promethazine, promethazine] | – | 2.9 | – | –
